Measurements taken from publication PMC3587566, “The Ultra-Potent and Selective TLR8 Agonist VTX-294 Activates Human Newborn and Adult Leukocytes” (PLoS ONE, 2013).
Like-named read-outs stand apart in the source and are kept apart here.

Assays:
Type in all cases: cell-based
human newborn cord blood [1] = test: Newborn whole blood assay, TNF / IL-1β ELISA; settings: for Newborn WBA IL-1β / Newborn WBA TNF: baseline subtracted
Description: (§1) Peripheral blood was collected from healthy adult volunteers, while human newborn cord blood was collected immediately after Cesarean section delivery of the placenta. Births to HIV-positive mothers were excluded. Human experimentation guidelines of the U.S. Department of Health and Human Services, The Brigham & Women’s Hospital, and Boston Children’s Hospital were observed, following protocols approved by the local institutional review boards. Human blood was anti-coagulated with 15–20 units/ml pyrogen-free sodium heparin (American Pharmaceutical Partners, Inc., Schaumberg, IL). All blood products were kept at room temperature and processed within 4 hrs of collection.
(§2) For assessment of TLR agonist activity in whole blood, we used an adaptation of the method of Kollmann et al., [33]. […] Suspensions containing 200 µl/well were gently mixed by pipetting and incubated for 2–24 h at 37°C in a humidified incubator at 5% CO2. After culture, plates were centrifuged at 500×g and 110–150 µl of supernatant was carefully removed by pipetting without disturbing the cell pellet. Supernatants derived from human leukocyte stimulations were assayed by ELISA for TNF (BD Biosciences, San Jose, CA, USA) and IL-1β (eBiosciences, San Diego, CA). Additionally, WB supernatants were analysed by Multi-Analyte Profiling (MAP). Briefly, supernatant samples were frozen at −80°C and submitted to Myriad RBM (Austin, TX, USA) for screening with a modified Human InflammationMAP® v. 1.6 antigen panel, which analyzed the samples for the presence of 98 analytes associated with inflammation. The minimum threshold for each analyte was set at the minimum detectable dose for that particular assay (defined as three standard deviations above the mean background).
(§3) Compound concentrations are shown in µM, except for MPLA, which are shown in ng/ml. Data are shown as mean ± SEM of n = 5–8.

[2] = tested on: human adult peripheral blood; test: Adult whole blood assay, TNF / IL-1β ELISA; settings: baseline subtracted
Description: as §1, §2, §3

human neonatal MoDCs = test: Neonatal monocyte-derived dendritic cell (MoDC) stimulation, TNF ELISA; settings: 24 h
Description: Heparinized human newborn cord blood or adult peripheral blood was layered onto Ficoll-Hypaque gradients (Ficoll-Paque PREMIUM, GE Healthcare, Waukesha, WI) to collect CBMC or peripheral blood mononuclear cell layers (PBMC), respectively. Monocytes were isolated from mononuclear cell fractions by positive selection by magnetic microbeads according to the manufacturer’s instructions (Miltenyi Biotec, Auburn, CA) using CD14 or CD33 as a pan-marker for monocytes. Monocyte preparations were >95% pure as assessed by flow cytometry for CD14 as previously described. […] After 5–6 days, immature MoDCs (HLA-DR^+, CD14^−, DC-SIGN^+ as measured by flow cytometry) of >90% purity were harvested by gently pipetting only the loosely adherent fraction and re-plated (10^5 cells/well) in 96-well U-bottom plates in the presence or absence of TLR agonists.
Following TLR agonist stimulation, MoDCs were resuspended in staining buffer (1×PBS, 0.5% human serum albumin (HSA)) and stained for 30 min at 4°C in the dark (1.5×10^5/per staining) with fluorophore-labeled antibodies (FITC/HLA-DR and PE/CD86) (BD Biosciences). Cells were then centrifuged, washed, fixed (1% paraformaldehyde (PFA)) and filtered prior to flow cytometry analysis using a MoFlo Legacy cytometer (DakoCytomation, Fort Collins, CO) and analyzed using FlowJo software (Tree Star). […]

human newborn cord blood [3] = test: Newborn whole blood assay, TNF / IL-1β ELISA; settings: mean, n = 4-9
[4] = tested on: human adult peripheral blood; test: Adult whole blood assay, TNF / IL-1β ELISA; settings: mean, n = 4-9; for EC50: Homo sapiens

CCOCc1nc2c(N)nc3ccccc3c2n1CC(C)(C)O [R848]
EC50 (human newborn cord blood [1]; Homo sapiens, mean, n = 4-9, read-out: Newborn WBA IL-1β EC50): 6650 nM | Newborn WBA IL-1β (human newborn cord blood [1]; agonist 0.1 μM): 0 pg/mL | Newborn WBA TNF (human newborn cord blood [1]; agonist 0.1 μM): 0 pg/mL | Newborn WBA IL-1β (human newborn cord blood [1]; agonist 0.3 μM): 9 pg/mL | Newborn WBA TNF (human newborn cord blood [1]; agonist 0.3 μM): 0 pg/mL | Newborn WBA IL-1β (human newborn cord blood [1]; agonist 1 μM): 285 pg/mL | Newborn WBA TNF (human newborn cord blood [1]; agonist 1 μM): 2164 pg/mL | Newborn WBA IL-1β (human newborn cord blood [1]; agonist 10 μM): 7442 pg/mL | Newborn WBA TNF (human newborn cord blood [1]; agonist 10 μM): 33609 pg/mL | Newborn WBA IL-1β (human newborn cord blood [1]; agonist 100 μM): 10822 pg/mL | Newborn WBA TNF (human newborn cord blood [1]; agonist 100 μM): 20117 pg/mL | Adult WBA IL-1β ([2]; agonist 0.1 μM): 2 pg/mL | Adult WBA TNF ([2]; agonist 0.1 μM): 132 pg/mL | Adult WBA IL-1β ([2]; agonist 0.3 μM): 27 pg/mL | Adult WBA TNF ([2]; agonist 0.3 μM): 750 pg/mL | Adult WBA IL-1β ([2]; agonist 1 μM): 779 pg/mL | Adult WBA TNF ([2]; agonist 1 μM): 6661 pg/mL | Adult WBA IL-1β ([2]; agonist 10 μM): 4762 pg/mL | Adult WBA TNF ([2]; agonist 10 μM): 13913 pg/mL | Adult WBA IL-1β ([2]; agonist 100 μM): 4694 pg/mL | Adult WBA TNF ([2]; agonist 100 μM): 9982 pg/mL | lowest concentration inducing MoDC TNF production (human neonatal MoDCs; tested 0.1, 0.3, 10 µM): 10 µM | EC50 (human newborn cord blood [3]; Homo sapiens, read-out: Newborn WBA TNF EC50): 1500 nM | EC50 ([4]; read-out: Adult WBA IL-1β EC50): 1620 nM | EC50 ([4]; read-out: Adult WBA TNF EC50): 1040 nM

monophosphoryl lipid A [MPLA]
Newborn WBA IL-1β (human newborn cord blood [1]; agonist 0.1 ng/ml): 0 pg/mL | Newborn WBA TNF (human newborn cord blood [1]; agonist 0.1 ng/ml): 0 pg/mL | Newborn WBA IL-1β (human newborn cord blood [1]; agonist 0.3 ng/ml): 0 pg/mL | Newborn WBA TNF (human newborn cord blood [1]; agonist 0.3 ng/ml): 11 pg/mL | Newborn WBA IL-1β (human newborn cord blood [1]; agonist 1 ng/ml): 24 pg/mL | Newborn WBA TNF (human newborn cord blood [1]; agonist 1 ng/ml): 29 pg/mL | Newborn WBA IL-1β (human newborn cord blood [1]; agonist 10 ng/ml): 682 pg/mL | Newborn WBA TNF (human newborn cord blood [1]; agonist 10 ng/ml): 642 pg/mL | Newborn WBA IL-1β (human newborn cord blood [1]; agonist 100 ng/ml): 1628 pg/mL | Newborn WBA TNF (human newborn cord blood [1]; agonist 100 ng/ml): 3665 pg/mL | Adult WBA IL-1β ([2]; agonist 0.1 ng/ml): 5 pg/mL | Adult WBA TNF ([2]; agonist 0.1 ng/ml): 128 pg/mL | Adult WBA IL-1β ([2]; agonist 0.3 ng/ml): 27 pg/mL | Adult WBA TNF ([2]; agonist 0.3 ng/ml): 33 pg/mL | Adult WBA IL-1β ([2]; agonist 1 ng/ml): 95 pg/mL | Adult WBA TNF ([2]; agonist 1 ng/ml): 215 pg/mL | Adult WBA IL-1β ([2]; agonist 10 ng/ml): 763 pg/mL | Adult WBA TNF ([2]; agonist 10 ng/ml): 3353 pg/mL | Adult WBA IL-1β ([2]; agonist 100 ng/ml): 3153 pg/mL | Adult WBA TNF ([2]; agonist 100 ng/ml): 9158 pg/mL | lowest concentration inducing MoDC TNF production (p<0.05 vs unstimulated) (human neonatal MoDCs; tested 1, 10, 100 ng/ml): 10 ng/mL | Newborn WBA IL-1β EC50 (human newborn cord blood [3]): 0.01148 µg/mL | Newborn WBA TNF EC50 (human newborn cord blood [3]): 0.01457 µg/mL | Adult WBA IL-1β EC50 [4]: 0.00159 µg/mL | Adult WBA TNF EC50 [4]: 0.01259 µg/mL
